Measurements published in PubChem BioAssay (NCI).
Values joined by “and” are separate entries in the source; they are usually repeats but may differ in a detail not shown here. Identical values can stand only once.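 Method: 48-hour compound exposure of cells in 96-well plates, five concentrations, linear interpolation of endpoints. GI50 = concentration required for 50% inhibition of growth. The concentration for full growth arrest is given as TGI.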

tested on: RPMI-8226 leukemia; assay: DTP human tumour cell line panel, 48 h

For `C[n+]1c(/C=C/c2c(O)ccc3ccccc23)ccc2ccccc21`, the GI50 was 1.73 µM.

First: C[n+]1c(/C=C/c2c(O)ccc3ccccc23)ccc2ccccc21
Second: CCOC(=O)c1c(-c2ccc(O)c(OC)c2)c(C#N)c(=S)n(C2OC(CO)C(O)C(O)C2O)c1-c1ccccc1 (stereo not drawn)
The TGI of the first is lower: 10.1 µM for the first, > 100 µM for the second.

`CCCNc1ncnc2c1ncn2C` and `COC(C)(C)C1(O)CC[C@@H](C)CC1=O` (stereo partly drawn) cannot be ordered by TGI: > 100 µM for the first, > 100 µM for the second.

tested on: SF-268 CNS; assay: DTP human tumour cell line panel, 48 h

Going from `C=C1C(=O)CC2C1CC(=O)/C(C)=C/CCC(C)(O)C2O` (stereo not drawn) to `O=C1NC2c3c(I)sc(I)c3C(O)C2O1` (stereo not drawn), the TGI rises from 35.6 µM to > 100 µM.

`O=C1C=C/C(=N\N=C(c2ccccc2)c2ccccc2)O1` and `O=C(O)COc1ccccc1C(=O)Nc1ccccc1` cannot be ordered by TGI: > 10 µM for the first, > 100 µM for the second.

Compared with `Cc1ccc(/C=N\NC2c3cc(Cl)ccc3Nc3nc(=O)[nH]c(C)c32)cc1` (stereo not drawn), `CCOc1cc(/C=C2/C(C)=NN(c3cccc(Cl)c3)/C2=N/c2nc3ccccc3s2)ccc1O` is lower in TGI: > 100 µM for the first, 86.1 µM for the second.

`O=C(O)c1ccccc1CC(Cc1ccc2c(c1)CCC2)C(=O)O` (stereo not drawn) and `COc1cc2c(cc1OC)C(C(c1ccccc1)c1ccccc1)N(C)CC2` (stereo not drawn) cannot be ordered by TGI: > 100 µM for the first, > 100 µM for the second.

`Cn1c(SCc2ccc(F)cc2)nnc1C12CC3CC(CC(C3)C1)C2` and `CSC1=N/C(=C\c2ccc(C)cc2)C(=O)N1CN1CCCCC1` cannot be ordered by TGI: > 100 µM for the first, > 100 µM for the second.

`CCCCCC#CCOC(=O)C(=[N+]=[N-])P(=O)(c1ccccc1)c1ccccc1` and `O=P(O)(O)C(N=C(Nc1ccccc1)Nc1ccccc1)P(=O)(O)O` cannot be ordered by TGI: > 10 µM for the first, > 100 µM for the second.

`COc1ccc(C(=O)/C=C/c2ccc(OCCCOc3ccc(/C=C/C(=O)c4ccc(OC)cc4)cc3)cc2)cc1` and `O=C1CC2(CCC(O)(c3ccc4ccccc4c3)C(C(=O)c3ccc4ccccc4c3)C2)C(=O)c2ccccc2N1` (stereo not drawn) cannot be ordered by TGI: > 100 µM for the first, > 100 µM for the second.

Going from `COc1ccc(C2c3cn[nH]c3CC3CCCCC32)cc1` (stereo not drawn) to `CC(O)CNC(=O)C(C)Oc1ccc(OCC2CCCCC2)cc1` (stereo not drawn), the TGI rises from 39.6 µM to > 100 µM.

Going from `COc1ccc(C2OC(c3ccncc3)=NN2C)cc1F` (stereo not drawn) to `C[N+](C)([O-])CCOc1cc2c(c3ccccc13)-c1ccccc1C2=O`, the TGI falls from > 100 µM to 36.4 µM.

`CCOC(=O)C1S/C(=N\C(=N)N[N+](=O)[O-])N=C1C` (stereo not drawn) and `C=C(C(=O)OCC)C(=O)OCC` cannot be ordered by TGI: > 100 µM for the first, > 100 µM for the second.

Compared with `NS(=O)(=O)c1ccc(NC(=S)/N=C/C2=C(O)c3ccccc3C2=O)cc1`, `C[n+]1c(/C=C/c2c(O)ccc3ccccc23)ccc2ccccc21` is lower in TGI: > 100 µM for the first, 16.7 µM for the second.

`Cc1nc(C)c(C(=O)NNC(=O)C[N+](C)(C)C)cc1C(=O)NNC(=O)C[N+](C)(C)C` and `Cc1c(/C=N\NC(=S)NCCNC(=S)N/N=C\c2c(C)n(C)n(-c3ccccc3)c2=O)c(=O)n(-c2ccccc2)n1C` cannot be ordered by TGI: > 100 µM for the first, > 100 µM for the second.

`S=C1NC2=C(CSC/C2=C\c2cccc(Br)c2)C(c2cccc(Br)c2)N1` (stereo not drawn) and `Cc1ccc(S(=O)(=O)n2c3c(c4ccccc42)CCN2C[C@H]([C@H](C)Br)CC[C@@H]32)cc1` cannot be ordered by TGI: > 100 µM for the first, > 100 µM for the second.

`Clc1ccc(-c2nnc3sc4nc5ccccc5c-4nn23)c(Cl)c1` and `CCOC(=O)c1c(-c2ccc(O)c(OC)c2)c(C#N)c(=S)n(C2OC(CO)C(O)C(O)C2O)c1-c1ccccc1` (stereo not drawn) cannot be ordered by TGI: > 100 µM for the first, > 100 µM for the second.

`CCCCCCCCCCCCCCCCNc1cccc2ccccc12` and `COC(C)(C)C1(O)CC[C@@H](C)CC1=O` (stereo partly drawn) cannot be ordered by TGI: > 100 µM for the first, > 100 µM for the second.

First: O=C1OCC/C1=N/O
Second: C=C1CC(C#N)(C#N)[C@H]2C3CCCC3C[C@@H]12 (stereo partly drawn) (tested in a mixture with another compound)
The TGI of the first is higher: > 100 µM for the first, 61.1 µM for the second.

For `CCOC(=O)N1CCC(N[C@@H]2c3cc4c(cc3C(c3cc(OC)c(O)c(OC)c3)C3C(=O)OC[C@@H]32)OCO4)CC1` (stereo partly drawn), the TGI was 30.8 µM and > 25 µM.

`C[n+]1c(/C=C/c2c(O)ccc3ccccc23)ccc2ccccc21` was tested, and the GI50 was 7.19 µM.

tested on: U251 CNS; assay: DTP human tumour cell line panel, 48 h

Compared with `C=C1C(=O)CC2C1CC(=O)/C(C)=C/CCC(C)(O)C2O` (stereo not drawn), `O=C1NC2c3c(I)sc(I)c3C(O)C2O1` (stereo not drawn) is higher in TGI: 40.6 µM for the first, > 100 µM for the second.

Going from `Cc1ccc(/C=N\NC2c3cc(Cl)ccc3Nc3nc(=O)[nH]c(C)c32)cc1` (stereo not drawn) to `CCOc1cc(/C=C2/C(C)=NN(c3cccc(Cl)c3)/C2=N/c2nc3ccccc3s2)ccc1O`, the TGI falls from > 100 µM to 43 µM.

Compared with `CC(=O)NC1C(OCc2ccccc2)OC(CO)C(O)C1OCC(=O)N[C@@H](C)C(=O)N[C@H](CCC(=O)NCCCNc1c2ccccc2nc2cccc([N+](=O)[O-])c12)C(N)=O` (stereo partly drawn), `CCOC(=O)c1c(-c2ccc(O)c(OC)c2)c(C#N)c(=S)n(C2OC(CO)C(O)C(O)C2O)c1-c1ccccc1` (stereo not drawn) is higher in TGI: 4.46 µM for the first, > 100 µM for the second.

`O=C(O)c1ccccc1CC(Cc1ccc2c(c1)CCC2)C(=O)O` (stereo not drawn) and `O=C(O)COc1ccccc1C(=O)Nc1ccccc1` cannot be ordered by TGI: > 100 µM for the first, > 100 µM for the second.

`Cn1c(SCc2ccc(F)cc2)nnc1C12CC3CC(CC(C3)C1)C2` and `CSC1=N/C(=C\c2ccc(C)cc2)C(=O)N1CN1CCCCC1` cannot be ordered by TGI: > 100 µM for the first, > 100 µM for the second.

`CCCCCC#CCOC(=O)C(=[N+]=[N-])P(=O)(c1ccccc1)c1ccccc1` and `COc1cc2c(cc1OC)C(C(c1ccccc1)c1ccccc1)N(C)CC2` (stereo not drawn) cannot be ordered by TGI: > 10 µM for the first, > 100 µM for the second.

`COc1ccc(C(=O)/C=C/c2ccc(OCCCOc3ccc(/C=C/C(=O)c4ccc(OC)cc4)cc3)cc2)cc1` and `O=C1CC2(CCC(O)(c3ccc4ccccc4c3)C(C(=O)c3ccc4ccccc4c3)C2)C(=O)c2ccccc2N1` (stereo not drawn) cannot be ordered by TGI: > 100 µM for the first, > 100 µM for the second.

First: COc1ccc(C2c3cn[nH]c3CC3CCCCC32)cc1 (stereo not drawn)
Second: CC(O)CNC(=O)C(C)Oc1ccc(OCC2CCCCC2)cc1 (stereo not drawn)
The TGI of the first is lower: 28.9 µM for the first, > 100 µM for the second.

First: COc1ccc(C2OC(c3ccncc3)=NN2C)cc1F (stereo not drawn)
Second: C[N+](C)([O-])CCOc1cc2c(c3ccccc13)-c1ccccc1C2=O
The TGI of the first is higher: > 100 µM for the first, 25.8 µM for the second.

`CCOC(=O)C1S/C(=N\C(=N)N[N+](=O)[O-])N=C1C` (stereo not drawn) and `C=C(C(=O)OCC)C(=O)OCC` cannot be ordered by TGI: > 100 µM for the first, > 100 µM for the second.

First: NS(=O)(=O)c1ccc(NC(=S)/N=C/C2=C(O)c3ccccc3C2=O)cc1
Second: C[n+]1c(/C=C/c2c(O)ccc3ccccc23)ccc2ccccc21
The TGI of the first is higher: > 100 µM for the first, 13.8 µM for the second.

`Cc1nc(C)c(C(=O)NNC(=O)C[N+](C)(C)C)cc1C(=O)NNC(=O)C[N+](C)(C)C` and `Cc1c(/C=N\NC(=S)NCCNC(=S)N/N=C\c2c(C)n(C)n(-c3ccccc3)c2=O)c(=O)n(-c2ccccc2)n1C` cannot be ordered by TGI: > 100 µM for the first, > 100 µM for the second.

`S=C1NC2=C(CSC/C2=C\c2cccc(Br)c2)C(c2cccc(Br)c2)N1` (stereo not drawn) and `Cc1ccc(S(=O)(=O)n2c3c(c4ccccc42)CCN2C[C@H]([C@H](C)Br)CC[C@@H]32)cc1` cannot be ordered by TGI: > 100 µM for the first, > 100 µM for the second.

`Clc1ccc(-c2nnc3sc4nc5ccccc5c-4nn23)c(Cl)c1` and `CCCCCCCCCCCCCCCCNc1cccc2ccccc12` cannot be ordered by TGI: > 100 µM for the first, > 100 µM for the second.

`O=C1OCC/C1=N/O` and `COC(C)(C)C1(O)CC[C@@H](C)CC1=O` (stereo partly drawn) cannot be ordered by TGI: > 100 µM for the first, > 100 µM for the second.

Going from `CCCNc1ncnc2c1ncn2C` to `C=C1CC(C#N)(C#N)[C@H]2C3CCCC3C[C@@H]12` (stereo partly drawn) (tested in a mixture with another compound), the TGI falls from > 100 µM to 40.4 µM.

In the case of `CCOC(=O)N1CCC(N[C@@H]2c3cc4c(cc3C(c3cc(OC)c(O)c(OC)c3)C3C(=O)OC[C@@H]32)OCO4)CC1` (stereo partly drawn), the TGI is reported as 6.51 µM and 8.32 µM.

Work on `C[n+]1c(/C=C/c2c(O)ccc3ccccc23)ccc2ccccc21` yielded a GI50 of 5.43 µM.
